The results in this text go back to patent US20110152079A1, “Pesticidal Compound Mixtures” (BAYER CROPSCIENCE AG, priority 2009, published 2011).

Molecules are shown by their SMILES.

What all share (format): in vivo
The test system of one data set is Tetranychus urticae. Briefly: Tetranychus urticae - Test (OP-resistant, bean plants). To be noted: 144 h, single compound, 6 d, read-out: Mortality in % after 6d. As for the experimental part: (§1) Solvent: 78 parts by weight of acetone • • 1.5 parts by weight of dimethylformamide Emulsifier: 0.5 parts by weight of alkylaryl polyglycole-ether
(§2) To produce a suitable preparation of active compound, 1 part by weight of active compound is mixed with the stated amount of solvent and emulsifier, and the concentrate is diluted with emulsifier-containing water to the desired concentration.
Bean plants (Phaseolus vulgaris) which are heavily infested with all stages of the two-spotted spider mite (Tetranychus urticae) are treated by being sprayed with the preparation of the active compound at the desired concentration.
After the specified period of time, mortality in % is determined 100% means that all the spider mites have been killed; 0% means that none of the spider mites have been killed.

A further data set deals with Myzus persicae. Nature of the data set: Myzus persicae - Test (sprayed cabbage leaves). To be noted: single compound; for Mortality in % after 6d / mortality at 500 g/ha: 500 g/ha. Here is the method:
as §1, §2
Cabbage leaves (Brassica oleracea) which are heavily infested by the green peach aphid (Myzus persicae) are treated by being sprayed with the preparation of the active compound at the desired concentration. After the specified period of time, the mortality in % is determined 100% means that all the aphids have been killed; 0% means that none of the aphids have been killed.

Another data set relates to Phaedon cochleariae. Briefly: Phaedon cochleariae Larven - Test (sprayed cabbage leaves). To be noted: 144 h, single compound, 6 d, read-out: Mortality in % after 6d. Here is the method:
as §1, §2
Cabbage leaves (Brassica oleracea) are treated by being sprayed with the preparation of the active compound at the desired concentration and are infested with larvae of the mustard beetle (Phaedon cochleariae) as long as the leaves are still moist.
After the specified period of time, the mortality in % is determined 100% means that all the beetle larvae have been killed; 0% means that none of the beetle larvae have been killed.

The next data set has as its system Spodoptera frugiperda. Briefly: Spodoptera frugiperda - Test (sprayed cabbage leaves). To be noted: 500 g/ha, single compound. Here is the method:
as §1, §2
Cabbage leaves (Brassica oleracea) are treated by being sprayed with the preparation of the active compound at the desired concentration and are infested with larvae of the fall army worm (Spodoptera frugiperda) as long as the leaves are still moist.
After the specified period of time, the mortality in % is determined 100% means that all the caterpillars have been killed; 0% means that none of the caterpillars have been killed.

Setting [1] is: Myzus persicae, 144 h, 6 d, read-out: Mortality in % after 6d.

One may read the mortality as the share of the test organisms that died. With `Cc1ccc(N(SC(F)(Cl)Cl)S(=O)(=O)N(C)C)cc1` [Tolyfluanid], in the data set on Tetranychus urticae, the mortality at 500 g/ha is 0%. As to `CCO[PH](=O)O` [Fosetyl AL], in the data set on Myzus persicae, the “Mortality in % after 6d” value is 0%. Turning to `COCC(=O)N(c1c(C)cccc1C)C(C)C(=O)OC` (stereo not shown) [Metalaxyl], the mortality at 500 g/ha with Phaedon cochleariae (500 g/ha) stood at 0%. Take `CCCN(CCOc1c(Cl)cc(Cl)cc1Cl)C(=O)n1ccnc1` [Prochloraz]: the mortality at 500 g/ha with Myzus persicae (setting [1]) was 0%. For the molecule `COC(=O)C(C)N(C(=O)Cc1ccccc1)c1c(C)cccc1C` (stereo not shown) [Benalaxyl], the mortality at 500 g/ha in the data set on Myzus persicae (setting [1]) is 0%. With `CN(C)C(=S)SSC(=S)N(C)C` [Thiram], the mortality at 500 g/ha in the data set with Myzus persicae (setting [1]) was found to be 0%.

With `CC1(C)[C@H](C=C(Cl)Cl)[C@H]1C(=O)OCc1c(F)c(F)cc(F)c1F` [Transfluthrin], the mortality at 100 g/ha in the data set with Tetranychus urticae (100 g/ha) came out at 0%. Besides, the mortality at 20 g/ha with Phaedon cochleariae (20 g/ha) was 50%; in the data set on Myzus persicae (Myzus persicae, 144 h, 20 g/ha, 6 d, read-out: Mortality in % after 6d), 0%. Take `N#Cc1ccccc1NC(=O)c1snc(Cl)c1Cl` [Isotianil]: the “Mortality in % after 6d” value in the data set with Spodoptera frugiperda was 0%.

With `O=C(NCc1ncc(C(F)(F)F)cc1Cl)c1c(Cl)cccc1Cl` [Fluopicolide], in the data set on Myzus persicae, the “Mortality in % after 6d” value came to 0%. In the case of `CC1(C(=O)Nc2ccc(O)c(Cl)c2Cl)CCCCC1` [Fenhexamid], the mortality at 500 g/ha in the data set with Tetranychus urticae and in the data set on Myzus persicae (setting [1]) was 0% in each case.
